We go through one compound from patent US20240197650A1, “Combination of Cinnamaldheyde and Eugenol with Antimycotic Activity” (priority 2021, published 2024).

The experiment has as its system C. albicans strain (C.a. 15). The experiment is described as follows: Time-kill curve. The format is cell-based. The settings on record: oil at its MFC, 2×10^5 CFU/ml C.a. 15, 35° C. The procedure:
A C. albicans strain (C.a. 15) was incubated with cinnamaldheyde and eugenol at their MFC. The C. albicans colonies were suspended in Sabouraud broth at a density corresponding to #1.4 McFarland (4×10^6 CFU/ml), then diluted 1/10 (4×10^5 CFU/ml, for a final concentration of 2×10^5 CFU/ml). The suspension was divided into aliquots, two aliquots were incubated with the oils (½ v/v) prepared at a concentration double of their MFC (for a final concentration equal to MFC); the third aliquot was diluted ½ with Sabouraud broth and was used as negative control. The mixtures were incubated at 35° C. on swinging plate. At T0, T1 h, T2 h, T4 h, T6 h, T8 h, T12 h and T24 h, 1/10 serial dilutions were carried out, to determine the total vital count (TVC). From each dilution, 100 μl were seeded in PDA and incubated at 35° C. for 24 hours, then the colonies were counted, their number expressed as CFU/ml. The test was carried out in duplicate.

As to `C=CCc1ccc(O)c(OC)c1` [Eugenol, eugenol], the “time to kill all the fungal cells” value was “within the first hour”. The “time to kill all the fungal cells” value (listed as eugenol) turned out to be 1 h.
